The record followed here is patent EP0848706B1, “SUBSTITUTED BENZENE-FUSED HETEROCYCLICS AS NEUROKININ ANTAGONISTS” (SCHERING CORPORATION, priority 1995, dated 1996).

The target of one assay is T1, human NK-1 receptor (Homo sapiens, UniProt P25103).
T1 construct: expressed in transfected cells; host or cells: Chinese Hamster ovary (CHO) cells
Description: Neurokinin receptor binding assay, NK-1 ([3H]-Substance P, CHO cell membranes). Conditions: for pKi: Ki according to Cheng and Prusoff from competition binding curves, read-out: Ki(NK1); for inhibition at 1 µM: read-out: % Inhibition NK1 (1µM dose). The procedure:
(§1) Chinese Hamster ovary (CHO) cells transfected with the coding regions for the human neurokinin 1 (NK1) of the human neurokinin 2 (NK2) receptors are grown in Dulbecco's minimal essential medium supplemented with 10% fetal calf serum, 0.1 mM non-essential amino acids, 2 mM glutamine, 100units/ml of penicillin and streptomycin, and 0.8 mg of G418/ml at 37°C in a humidified atmosphere containing 5% CO2.
(§2) Cells are detached from T-175 flasks with a sterile solution containing 5mM EDTA in phosphate buffered saline. Cells are harvested by centrifugation and washed in RPMI media at […] for 5 minutes. The pellet is resuspended inTris-HCl (pH7.4) containing 1 uM phsphoramidon and 4 ug/ml of chymostatin at a cell density of 30 x 10^6 cells/ml. The suspension is then homogenized in a Brinkman Polytron (setting 5) for 30-45 seconds. The homogenate is centrifuged at 800 x g for 5 min at 4°C to collect unbroken cells and nuclei. The supernatant is centrifuged in a Sorvall RC5C at 19,000 rpm ([…]) for 30 min at 4°C. The pellet is resuspended, an aliquot is removed for a protein determination (BCA) and washed again. The resulting pellet is stored at -80°C.
(§3) To assay receptor binding, 50 µl of [^3H]-Substance P (9-Sar, 11-Met) (specific activity 41 Ci/mmol) (Dupont-NEN) (0.8 nM for the NK-1 assay) or [^3H]-Neurokinin A (specific activity 114 Ci/ mmole) (Zenca) (1.0 nM for the NK-2 assay) is added to tubes containing buffer (50 mM Tris-HCl (pH 7.4) with 1 mM MnCl2 and 0.2% Bovine Serum Albumin) and either DMSO or test compound. Binding is initiated by the addition of 100µl of membrane (10-20 µg) containing the human NK-1 or NK-2 receptor in a final volume of 200 µl. After 40 minutes at room temperature, the reaction is stopped by rapid filtration onto Whatman GF/C filters which have been presoaked in 0.3% polyethylenimine. Filters are washed 2 times with 3 ml of 50 mM Tris-HCl (pH7.4). Filters are added to 6 mls of Ready-Safe liquid scintillation cocktail and quantified by liquid scintillation spectrometry in a LKB 1219 RackBeta counter. Non-specific binding is determined by the addition of either 1 µM of CP-99994 (NK-1) or 1µM SR-48968 (NK-2) (both synthesized by the chemistry department of Schering-Plough Research Institute). IC50 values are determined from competition binding curves and Ki values are determined according to Cheng and Prusoff using the experimentally determined value of 0.8 nM for the NK-1 receptor and 2.4 nM for the NK-2 receptor.
(§4) % Inhibition is the difference between the percent of maximum specific binding (MSB) and 100%. The percent of MSB is defined by the following equation, wherein "dpm" is disintegrations per minute: % MSB =((dpm of unknown) - (dpm of nonspecific binding))/((dpm of total binding) - (dpm of nonspecific binding))X 100 [formula]

The target in a further assay is T2, human NK-2 receptor (Homo sapiens, UniProt P21452).
T2 construct: expressed in transfected cells; host or cells: Chinese Hamster ovary (CHO) cells
T2 sequence (P21452 1-398): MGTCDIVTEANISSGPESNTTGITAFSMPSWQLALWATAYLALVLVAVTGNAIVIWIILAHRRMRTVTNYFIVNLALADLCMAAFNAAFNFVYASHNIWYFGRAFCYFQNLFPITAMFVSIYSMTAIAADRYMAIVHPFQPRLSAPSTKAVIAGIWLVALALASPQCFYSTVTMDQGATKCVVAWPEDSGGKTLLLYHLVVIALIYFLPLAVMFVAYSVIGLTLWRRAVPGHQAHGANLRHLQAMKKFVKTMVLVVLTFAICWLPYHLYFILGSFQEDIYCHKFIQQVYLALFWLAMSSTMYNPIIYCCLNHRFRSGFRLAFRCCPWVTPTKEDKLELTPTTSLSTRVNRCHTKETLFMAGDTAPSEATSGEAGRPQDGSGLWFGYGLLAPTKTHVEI
Description: Neurokinin receptor binding assay, NK-2 ([3H]-Neurokinin A, CHO cell membranes). Conditions: for pKi: Ki according to Cheng and Prusoff from competition binding curves, read-out: Ki (NK2); for inhibition at 1 µM: read-out: % Inhibition NK2 (1µM dose). The procedure:
as §1, §2, §3, §4

The target in the next assay is T3, NK3 (Homo sapiens, UniProt P29371).
T3 sequence (P29371 1-465): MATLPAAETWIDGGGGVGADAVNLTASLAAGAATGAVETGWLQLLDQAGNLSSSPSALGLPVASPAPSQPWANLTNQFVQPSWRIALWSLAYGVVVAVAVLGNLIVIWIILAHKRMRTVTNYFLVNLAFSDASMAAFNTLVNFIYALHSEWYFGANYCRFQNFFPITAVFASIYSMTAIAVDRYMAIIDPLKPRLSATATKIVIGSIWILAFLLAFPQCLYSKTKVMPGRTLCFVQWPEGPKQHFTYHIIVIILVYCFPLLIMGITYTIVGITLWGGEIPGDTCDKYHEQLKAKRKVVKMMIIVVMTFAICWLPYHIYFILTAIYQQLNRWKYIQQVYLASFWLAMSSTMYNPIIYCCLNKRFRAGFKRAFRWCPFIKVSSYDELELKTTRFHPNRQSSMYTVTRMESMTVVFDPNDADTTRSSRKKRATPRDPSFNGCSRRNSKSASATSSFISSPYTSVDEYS
Description: NK3 activity, procedure similar to the literature (Molecular Pharmacol., 48 (1995), p. 711-716). In kind it is binding. The method, then: NK3 activity is determined by following a procedure similar to that described in the literature, e.g., Molecular Pharmacol., 48 (1995), p. 711-716.

Where [1] appears, read: 1µM dose, % inhibition = 100% minus percent of maximum specific binding.

SMILES strings stand for the structures. pKi: −log10 of the molar value. Read-outs that look alike come from different tables or passages of the source.

T1 sequence (P25103 whole entry): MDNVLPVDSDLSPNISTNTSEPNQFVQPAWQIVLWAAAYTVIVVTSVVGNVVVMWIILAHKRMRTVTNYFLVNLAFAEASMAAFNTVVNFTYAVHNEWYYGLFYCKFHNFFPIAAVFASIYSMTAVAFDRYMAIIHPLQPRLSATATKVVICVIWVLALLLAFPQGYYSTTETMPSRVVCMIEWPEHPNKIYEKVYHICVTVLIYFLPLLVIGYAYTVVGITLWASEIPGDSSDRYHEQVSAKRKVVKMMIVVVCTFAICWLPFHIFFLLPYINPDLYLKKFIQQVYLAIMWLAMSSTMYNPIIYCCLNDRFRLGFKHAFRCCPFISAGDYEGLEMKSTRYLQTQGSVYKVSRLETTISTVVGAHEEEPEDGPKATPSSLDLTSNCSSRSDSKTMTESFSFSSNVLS

Take `C=CCN(CCc1c[nH]c2ccccc12)CCC(CN(C)C(=O)c1cc(OC)c(OC)c(OC)c1)c1ccc(Cl)c(Cl)c1` (stereo not shown) [Example 9b]: the negative logarithm of the Ki (pKi) is 7.64 at human NK-1 receptor and 6.60 on human NK-2 receptor.

As for `COc1cc(C(=O)N(C)CC(CCN(C)CCc2c[nH]c3ccccc23)c2ccc(Cl)c(Cl)c2)cc(OC)c1OC` (stereo not shown) [Example 2], the negative logarithm of the Ki (pKi) is 7.60 on human NK-1 receptor, 7.48 at human NK-2 receptor and 6.35 on NK3. Besides, the figures for the inhibition at 1 µM on human NK-1 receptor and at human NK-2 receptor were 81% and 87%, respectively.

As for `COc1cc(OC)cc(C(=O)N2CCC(CCN(C)CCc3c[nH]c4ccccc34)(c3ccc(Cl)c(Cl)c3)C2)c1` (stereo not shown) [Example 14a], the pKi at human NK-1 receptor was 6.63; on human NK-2 receptor it was 7.52.

For `CN(CCc1c[nH]c2ccccc12)CCC(CN(C)C(=O)c1ccc2c(c1)OCO2)c1ccc(Cl)c(Cl)c1` (stereo not shown) [Example 12a], the inhibition at 1 µM stood at 69% at human NK-1 receptor (setting [1]) and 96% on human NK-2 receptor (setting [1]). For the same molecule, the pKi at human NK-1 receptor was 6.78; at human NK-2 receptor, 7.23.

In the case of `COc1cc(C(=O)N(C)CC(CCN(C)CCc2c[nH]c3ccc(F)cc23)c2ccc(Cl)c(Cl)c2)cc(OC)c1OC` (racemic) [Example 7c], the pKi at human NK-1 receptor was 7.92. At human NK-2 receptor, the pKi was 8.00 and the inhibition at 1 µM stood at 100%.
